Consider one molecule from patent publication US20100105758A1 (Centre de Recherche Public de la Sante, priority 2006, published 2010).

Test [1] concerns primary human macrophages. The test is described as follows: MMP-9 mRNA expression in primary macrophages, quantitative PCR. The following applies: Ado and EHNA 10 μmol/L each, 24 hours. Type of test: cell-based. As to the method:
(§1) Cell culture. All cell culture reagents were from Lonza (Verviers, Belgium) unless specified otherwise. Peripheral venous blood was obtained from healthy volunteers. Peripheral blood mononuclear cells were obtained by Ficoll gradient. Monocytes were purified by negative selection using the Monocyte Isolation Kit II (Myltenyi Biotec GmbH, Bergisch Gladbach, Germany). […] Macrophages were incubated for 15 minutes with Ado/EHNA (10 μmol/L) or vehicle, then LPS (100 ng/ml) or vehicle was added and cells were incubated for another 24 hours before harvesting. Cells from the monocyte-like line THP-1 (ATCC, LGC Promochem, Teddington, UK) were propagated at 37° C.-5% CO2 in RPMI 1640 medium supplemented with L-glutamine (2 mM), Penicillin (100 Units/ml), Streptomycin (100 μg/ml), non-essential amino acids solution (1 μM), sodium pyruvate (1 mM), and 10% heat-inactivated fetal calf serum (FCS) (Eurobio, Les Ulys, France). For experiments, FCS in culture medium was reduced to 1%. Cells were treated for 15 min with EHNA vehicle (DMSO), Ado (0.01 to 100 μM), Ado receptors agonists (0.1 to 10 μM), EHNA (10 μM) or Dipyridamole (DIP) (10 μM). Cells were then differentiated into macrophages with 150 nM phorbol myristate actetate (PMA) for 24 hours. Macrophages were subsequently treated with LPS (1 to 1000 ng/ml), fMLP (10^−7 M) or H2O2 (10 mM) for another 24 hours.
(§2) Real time quantitative PCR.

Test [2] concerns THP-1-derived macrophages. In words: MMP-9 mRNA expression in THP-1-derived macrophages, quantitative PCR. Type of test: cell-based. The settings on record: THP-1 cells, after 48 hours of differentiation. As to the method: FIG. 2. […] THP-1 cells were treated for 15 min with Ado and 10 μM EHNA or vehicle before differentiation to macrophages with 150 nM PMA for 48 hours. EHNA, which inhibits Ado deaminase, and DIP, which inhibits Ado transport, were used to enhance endogenous Ado concentration. Gelatinase activity was measured in cell-free conditioned medium by zymography and densitometry. A. A representative zymogram is shown. […] C. Time-course experiment.
as §1, with “For experiments, FCS in culture medium was reduced to 1%. Cells were treated for 15 min with EHNA vehicle (DMSO), Ado (0.01 to 100 μM), Ado receptors agonists (0.1 to 10 μM), EHNA (10 μM) or Dipyridamole (DIP) (10 μM). Cells were then differentiated into macrophages with 150 nM phorbol myristate actetate (PMA) for 24 hours. Macrophages were subsequently treated with LPS (1 to 1000 ng/ml), fMLP (10^−7 M) or H2O2 (10 mM) for another 24 hours.” left out
as §2

The test system of test [3] is THP-1-derived macrophages. In words: Ado receptor mRNA expression in THP-1-derived macrophages, quantitative PCR. It counts as cell-based. The settings on record: 10 μM Ado and 10 μM EHNA, PMA 48 hours. Here is the method: FIG. 3. […] A. THP-1 cells were treated for 15 min with 10 μM Ado and 10 μM EHNA or vehicle before differentiation to macrophages with 150 nM PMA for 48 hours. […] B. THP-1 cells were treated for 15 min with 0.1, 1 or 10 μM of Ado receptors agonists (CPA, A1-specific; CGS21680, A2a-specific; IB-MECA, A3-specific). […] Gelatinase activity was assessed in conditioned medium. […] C. […] Cells were transfected with siRNA specific for A2a, A2b or A3 Ado receptors, incubated for 48 hours to achieve down-regulation of Ado receptors expression, treated for 15 min with 10 μM Ado and 10 μM EHNA or vehicle before differentiation to macrophages with 150 nM PMA for 48 hours. Conditioned medium was analysed by gelatin zymography.
Cell culture. All cell culture reagents were from Lonza (Verviers, Belgium) unless specified otherwise. Peripheral venous blood was obtained from healthy volunteers. Peripheral blood mononuclear cells were obtained by Ficoll gradient. Monocytes were purified by negative selection using the Monocyte Isolation Kit II (Myltenyi Biotec GmbH, Bergisch Gladbach, Germany). […] Macrophages were incubated for 15 minutes with Ado/EHNA (10 μmol/L) or vehicle, then LPS (100 ng/ml) or vehicle was added and cells were incubated for another 24 hours before harvesting. […]
as §2

The subject of test [4] is THP-1 monocytes. In words: Migration assay, modified Boyden chamber coated with gelatin B, MCP-1 gradient. Type of test: cell-based. The following applies: 10 μM Ado and 10 μM EHNA for 24 hours, MCP-1 10 ng/mL, migration after 24 hours. Here is the method:
Infiltration of monocytes/macrophages into the myocardium is a hallmark of ventricular remodelling post MI. Cell migration is facilitated by degradation of the ECM by MMP-9. We therefore tested whether the increase in MMP-9 secretion by Ado could improve monocytes migration along a gradient of MCP-1. For this purpose, the top of a modified Boyden chamber was coated with gelatin B and MCP-1 was added in the bottom compartment. Monocytes were treated with Ado before seeding on the microporous membrane of the chamber. […] This effect was inhibited by the synthetic MMP inhibitor GM6001 and the endogenous MMP-9 inhibitor TIMP-1 (FIG. 4).
FIG. 4. Ado increases monocytes migratory capacity. THP-1 monocytes were treated for 24 hours with 10 μM Ado and 10 μM EHNA or vehicle before seeding on the microporous membrane of a modified Boyden chamber pre-coated with gelatin B. 10 ng/mL MCP-1 was added in the bottom compartment. When specified, cells were pre-incubated with TIMP-1 (10 ng/mL) or GM6001 (10 nM or 1 μM) before seeding on the membrane. Cell migration was quantified by fluorescence after 24 hours. […] Results are mean±SD (n=5). * P<0.05 vs no Ado.
Migration assay. Migratory capacity of THP-1 monocytes was studied using a Transwell® system with polycarbonate microporous membranes (5 μm pore size, 24-well chamber, Costar, Lowell, USA). Membranes were coated with a 2% gelatin B solution and allowed to dry at room temperature for 2 hours. MCP-1 (10 ng/mL) was added in the bottom compartment. THP-1 monocytes were cultured in serum- and antibiotic-free medium with or without 10 μM Ado and 10 μM EHNA for 24 hours. Cells were pre-incubated for 30 min with GM 6001 (10 nM or 1 μM) or TIMP-1 (10 ng/mL) before seeding into the upper compartment at a concentration of 7.5×10^4 cells per well. After 24 hours, cells that migrated through the membrane were detached, lysed and stained by the CyQuant GR® dye (Invitrogen) for 15 min. Fluorescence was read with a POLARstar Optima (BMG LABTECH, Champigny-sur-Marne, France) microplate reader (Xex=492 nm, kem=520 nm).

For test [5] the following is noted: in combination with lidocaine or primary angioplasty; cited from earlier work.

As to `Nc1ncnc2c1ncn2[C@@H]1O[C@H](CO)[C@@H](O)[C@H]1O` [adenosine], the “MMP-9 mRNA expression” value in test [1] is “increased”. In addition, the “MMP-9 mRNA expression” value in test [2] is given as “more than two-fold increase”. Besides, in test [3], the “A2b receptor expression (mRNA)” value is “more than two-fold increase” and the “A3 receptor expression (mRNA)” value was “more than two-fold increase”. In addition, the “cell migration through the gelatin layer” value in test [4] is “enhanced cell migration”. In addition, the “cardiac function of patients with MI” value in test [5] is “improved cardiac function”.
